From ChEMBL document CHEMBL1130668, “Synthesis and evaluation of paclitaxel C7 derivatives: solution phase synthesis of combinatorial libraries” (1998)

What was measured:
[1] = Cytotoxicity activity was measured against human breast cancer cell line MCF-7 with respect to ED50 of paclitaxel (2 nM); type: functional, MCF7
MCF7 [2] = assay: Effect on microtubule assembly in MCF-7 cells, compared to paclitaxel (0.3 uM), given as ratio of respective ED50; type: functional, Homo sapiens
MCF7 [3] = assay: Cytotoxicity activity was measured against resistant human breast cancer cell line MCF-7; Did not inhibit proliferation at maximum concentration tested; type: functional; settings: read-out: ED50 (the source's name)
[4] = Cytotoxicity activity was measured against resistant human breast cancer cell line MCF-7 with respect to ED50 of paclitaxel (2200-3700 nM); type: functional, MCF7
MCF7 [5] = assay: Cytotoxicity activity was measured against human breast cancer cell line MCF-7; Did not inhibit proliferation at maximum concentration tested; type: functional; settings: read-out: ED50 (the source's name)

Row | Compound | Ratio [1] | Ratio (MCF7 [2]) | EC50 (MCF7 [3]) | Ratio [4] | EC50 (MCF7 [5])
1 | CC(=O)O[C@H]1C(=O)[C@]2(C)[C@@H](OC(=O)c3ccc([N+](=O)[O-])o3)C[C@H]3OC[C@@]3(OC(C)=O)[C@H]2[C@H](OC(=O)c2ccccc2)[C@]2(O)C[C@H](OC(=O)[C@H](O)[C@@H](NC(=O)c3ccccc3)c3ccccc3)C(C)=C1C2(C)C | 12 | 8.7 | > 5000 nM |  | 
2 | CSCC(=O)O[C@H]1C[C@H]2OC[C@@]2(OC(C)=O)[C@H]2[C@H](OC(=O)c3ccccc3)[C@]3(O)C[C@H](OC(=O)[C@H](O)[C@@H](NC(=O)c4ccccc4)c4ccccc4)C(C)=C([C@@H](OC(C)=O)C(=O)[C@]12C)C3(C)C [PACLITAXEL C7 METHYLTHIOACETIC ACID ESTER] | 10 | 0.7 |  | 0.5 | 
3 | CC(=O)O[C@H]1C(=O)[C@]2(C)[C@@H](OC(=O)CCCNC(=O)OC(C)(C)C)C[C@H]3OC[C@@]3(OC(C)=O)[C@H]2[C@H](OC(=O)c2ccccc2)[C@]2(O)C[C@H](OC(=O)[C@H](O)[C@@H](NC(=O)c3ccccc3)c3ccccc3)C(C)=C1C2(C)C |  | 0.7 | > 5000 nM |  | > 80 nM
4 | CC(=O)O[C@H]1C(=O)[C@]2(C)[C@@H](OC(=O)c3ccc(Cl)cc3)C[C@H]3OC[C@@]3(OC(C)=O)[C@H]2[C@H](OC(=O)c2ccccc2)[C@]2(O)C[C@H](OC(=O)[C@H](O)[C@@H](NC(=O)c3ccccc3)c3ccccc3)C(C)=C1C2(C)C |  | 13 |  | 1.6 | > 80 nM
5 | CCCCC(=O)O[C@H]1C[C@H]2OC[C@@]2(OC(C)=O)[C@H]2[C@H](OC(=O)c3ccccc3)[C@]3(O)C[C@H](OC(=O)[C@H](O)[C@@H](NC(=O)c4ccccc4)c4ccccc4)C(C)=C([C@@H](OC(C)=O)C(=O)[C@]12C)C3(C)C [PACLITAXEL C7 VALERIC ACID ESTER] | 10 | 0.7 |  | 0.4 | 
6 | CC(=O)O[C@H]1C(=O)[C@]2(C)[C@@H](OC(=O)C3CC3)C[C@H]3OC[C@@]3(OC(C)=O)[C@H]2[C@H](OC(=O)c2ccccc2)[C@]2(O)C[C@H](OC(=O)[C@H](O)[C@@H](NC(=O)c3ccccc3)c3ccccc3)C(C)=C1C2(C)C [PACLITAXEL C7 CYCLOPROPANECARBOXYLIC ACID ESTER] | 35 | 22 | > 5000 nM |  | 
7 | CC(=O)O[C@H]1C(=O)[C@]2(C)[C@@H](OC(=O)c3ccc(Cl)c(Cl)c3)C[C@H]3OC[C@@]3(OC(C)=O)[C@H]2[C@H](OC(=O)c2ccccc2)[C@]2(O)C[C@H](OC(=O)[C@H](O)[C@@H](NC(=O)c3ccccc3)c3ccccc3)C(C)=C1C2(C)C |  | 24 | > 5000 nM |  | > 80 nM
8 | CC(=O)O[C@H]1C(=O)[C@]2(C)[C@@H](OC(C)=O)C[C@H]3OC[C@@]3(OC(C)=O)[C@H]2[C@H](OC(=O)c2ccccc2)[C@]2(O)C[C@H](OC(=O)[C@H](O)[C@@H](NC(=O)c3ccccc3)c3ccccc3)C(C)=C1C2(C)C [PACLITAXEL C7 ACETYLCARBOXYLIC ACID ESTER] | 8 | 0.7 |  | 0.7 | 
9 | CC(=O)O[C@H]1C(=O)[C@]2(C)[C@@H](OC(=O)c3ccco3)C[C@H]3OC[C@@]3(OC(C)=O)[C@H]2[C@H](OC(=O)c2ccccc2)[C@]2(O)C[C@H](OC(=O)[C@H](O)[C@@H](NC(=O)c3ccccc3)c3ccccc3)C(C)=C1C2(C)C | 27 | 22 |  | 1 | 
10 | CC(=O)O[C@H]1C(=O)[C@]2(C)[C@@H](OC(=O)c3cccn3C)C[C@H]3OC[C@@]3(OC(C)=O)[C@H]2[C@H](OC(=O)c2ccccc2)[C@]2(O)C[C@H](OC(=O)[C@H](O)[C@@H](NC(=O)c3ccccc3)c3ccccc3)C(C)=C1C2(C)C |  | 8.3 |  | 1.2 | > 80 nM
11 | CC(=O)O[C@H]1C(=O)[C@]2(C)[C@@H](OC(=O)c3ccc(C)cc3)C[C@H]3OC[C@@]3(OC(C)=O)[C@H]2[C@H](OC(=O)c2ccccc2)[C@]2(O)C[C@H](OC(=O)[C@H](O)[C@@H](NC(=O)c3ccccc3)c3ccccc3)C(C)=C1C2(C)C | 31 | 25 |  | 0.9 | 
12 | CC(=O)OCC(=O)O[C@H]1C[C@H]2OC[C@@]2(OC(C)=O)[C@H]2[C@H](OC(=O)c3ccccc3)[C@]3(O)C[C@H](OC(=O)[C@H](O)[C@@H](NC(=O)c4ccccc4)c4ccccc4)C(C)=C([C@@H](OC(C)=O)C(=O)[C@]12C)C3(C)C [PACLITAXEL C7 ACETOXYACETIC ACID ESTER] | 17 | 1.7 |  | 1.8 | 
13 | CC(=O)O[C@H]1C(=O)[C@]2(C)[C@@H](OC(=O)C(C)(C)C)C[C@H]3OC[C@@]3(OC(C)=O)[C@H]2[C@H](OC(=O)c2ccccc2)[C@]2(O)C[C@H](OC(=O)[C@H](O)[C@@H](NC(=O)c3ccccc3)c3ccccc3)C(C)=C1C2(C)C [PACLITAXEL C7 TRIMETHYLACETIC ACID ESTER] | 3 | 8.3 |  | 1.5 | 
14 | CC(=O)O[C@H]1C(=O)[C@]2(C)[C@@H](OC(=O)CC#N)C[C@H]3OC[C@@]3(OC(C)=O)[C@H]2[C@H](OC(=O)c2ccccc2)[C@]2(O)C[C@H](OC(=O)[C@H](O)[C@@H](NC(=O)c3ccccc3)c3ccccc3)C(C)=C1C2(C)C [PACLITAXEL C7 CYANOACETIC ACID ESTER] | 8 | 1.3 |  |  | > 5000 nM
15 | CC(=O)O[C@H]1C(=O)[C@]2(C)[C@@H](OC(=O)c3ccccc3)C[C@H]3OC[C@@]3(OC(C)=O)[C@H]2[C@H](OC(=O)c2ccccc2)[C@]2(O)C[C@H](OC(=O)[C@H](O)[C@@H](NC(=O)c3ccccc3)c3ccccc3)C(C)=C1C2(C)C [PACLITAXEL C7 BENZOIC ACID ESTER] | 14 | 8.3 |  | 1.1 | 
16 | CC(=O)O[C@H]1C(=O)[C@]2(C)[C@@H](OC(=O)C3CCCC3)C[C@H]3OC[C@@]3(OC(C)=O)[C@H]2[C@H](OC(=O)c2ccccc2)[C@]2(O)C[C@H](OC(=O)[C@H](O)[C@@H](NC(=O)c3ccccc3)c3ccccc3)C(C)=C1C2(C)C [PACLITAXEL C7 CYCLOPENTANECARBOXYLIC ACID ESTER] | 37 | 1 |  | 1.3 | 
17 | CC(=O)O[C@H]1C(=O)[C@]2(C)[C@@H](OC(=O)c3ccsc3)C[C@H]3OC[C@@]3(OC(C)=O)[C@H]2[C@H](OC(=O)c2ccccc2)[C@]2(O)C[C@H](OC(=O)[C@H](O)[C@@H](NC(=O)c3ccccc3)c3ccccc3)C(C)=C1C2(C)C |  | 1.7 |  | 1.3 | > 80 nM
18 | COc1ccc(C(=O)O[C@H]2C[C@H]3OC[C@@]3(OC(C)=O)[C@H]3[C@H](OC(=O)c4ccccc4)[C@]4(O)C[C@H](OC(=O)[C@H](O)[C@@H](NC(=O)c5ccccc5)c5ccccc5)C(C)=C([C@@H](OC(C)=O)C(=O)[C@]23C)C4(C)C)cc1 |  | 22 |  | 2.2 | > 80 nM
19 | COCC(=O)O[C@H]1C[C@H]2OC[C@@]2(OC(C)=O)[C@H]2[C@H](OC(=O)c3ccccc3)[C@]3(O)C[C@H](OC(=O)[C@H](O)[C@@H](NC(=O)c4ccccc4)c4ccccc4)C(C)=C([C@@H](OC(C)=O)C(=O)[C@]12C)C3(C)C [PACLITAXEL C7 METHOXYACETIC ACID ESTER] | 14 | 1 |  | 1.3 | 
